Measurements published in patent US9988405B2, “O-phenyl chalcone compounds and uses thereof” (Neopanora Bio-technology (Zhuhai) Ltd., priority 2014, dated 2018).
Read-outs that look alike come from different tables or passages of the source.

How the values were obtained:
[1] = tested on: human ovary cancer cells A2780; test: SRB anti-proliferative assay, A2780; format: cell-based; conditions: read-out: Anti-proliferative IC50, A2780
Protocol: (§1) The present example evaluated the anti-tumor activity of the molecules provided by the present invention. The present example mainly used a method with SRB (sulforhodamine B) dying, in which proteins in the cell were stained with SRB dye to determine protein content in the cell so as to characterize cell growth density. Firstly, the test compound was formulated into a stock solution (10 mM), which was stored at 4° C. in a refrigerator. Prior to beginning the assay, the stock solution was diluted with DMSO into a series of different concentrations. The required concentrations were obtained by diluting with complete growth medium. Well growing cells were seeded in a 96-well plate (5000 cells/well, 100 uL) and cultured in an incubator at 37° C., 5% CO2, and 90% RH. 24 h later, the prepared compound solution (100 μL) was slowly added to cell solution in the 96-well plate, and the well with DMSO (final concentration 0.5%) instead of the drug was used as a drug free control. The plate was incubated for 48 h. In addition, a day 0 plate that was drug free was directly detected after cell seeded in the plate for 24 h. The 96-well plate was taken out and added with trichloroacetic acid (50 μL, final concentration 10%). The plate was incubated at 4° C. for 1 h to fix the cells.
(§2) The plate was washed with ultrapure water and air-dried. The plate was then stained with SRB dye (0.4% in 1% acetic acid, 100 μL) for 30 min at room temperature. The plate was then washed with 1% acetic acid and then air-dried. A Tris base solution (100 μL, 10 mM, pH10.4) was added, after which the plate was gently shaken for 1 h on an orbital shaker to ensure that the dyes were completed dissolved. The optical density (OD) was recorded on a TECAN Infinite M200 Pro multimode reader at 515 nm. The cell growth (% of control)=(OD value of wells added with drug−mean OD value of Day 0 plate)/(OD value of DMSO drug-free control well−mean OD value of Day 0 plate)*100.

[2] = tested on: human colon cancer cells HCT8; test: SRB anti-proliferative assay, HCT-8; format: cell-based; conditions: read-out: Anti-proliferative IC50, HCT-8
Protocol: as §1, §2

[3] = tested on: human lung cancer cells A549; test: SRB anti-proliferative assay, A549; format: cell-based; conditions: read-out: Anti-proliferative IC50, A549
Protocol: as §1, §2

[4] = tested on: human breast cancer cells MCF7; test: SRB anti-proliferative assay, MCF-7; format: cell-based; conditions: read-out: Anti-proliferative IC50, MCF-7
Protocol: as §1, §2

[5] = tested on: human nasopharyngeal carcinoma cells CNE2; test: SRB anti-proliferative assay, CNE2; format: cell-based; conditions: read-out: Anti-proliferative IC50, CNE2
Protocol: as §1, §2

[6] = tested on: human colon cancer cells SW480; test: SRB anti-proliferative assay, SW480; format: cell-based; conditions: read-out: Anti-proliferative IC50, SW480
Protocol: as §1, §2

[7] = tested on: human liver cancer cell HepG2; test: SRB anti-proliferative assay, HepG2; format: cell-based; conditions: read-out: Anti-proliferative IC50, HepG2
Protocol: as §1, §2

[8] = tested on: Paclitaxel-resistant human ovarian carcinoma cell A2780/TAX; test: SRB anti-proliferative assay, drug-resistant A2780/TAX; format: cell-based; conditions: read-out: Anti-proliferative IC50, A2780/TAX
Protocol: as §1, §2
(§3) We also evaluated the anti-proliferation activities of selected compounds against drug-resistant cancer cell lines.

[9] = tested on: incristine resistant human ileocecum carcinoma cell HCT-8/VCT; test: SRB anti-proliferative assay, drug-resistant HCT-8/VCT; format: cell-based; conditions: HCT8/VCT, read-out: Anti-proliferative IC50, HCT-8/VCT
Protocol: as §1, §2, §3

[10] = tested on: cis-platinum resistant human lung cancer cell A549/CDDP; test: SRB anti-proliferative assay, drug-resistant A549/CDDP; format: cell-based; conditions: read-out: Anti-proliferative IC50, A549/CDDP
Protocol: as §1, §2, §3

[11] = tested on: doxorubicin resistant breast cancer cell MCF-7/DOX; test: SRB anti-proliferative assay, drug-resistant MCF-7/DOX; format: cell-based; conditions: Homo sapiens, MCF7-DOX, read-out: Anti-proliferative IC50, MCF-7/DOX
Protocol: as §1, §2, §3

tubulin = test: Microtubule polymerization inhibition assay (tubulin polymerization assay kit); format: biochemical; conditions: 2 mg/ml tubulin, 37° C., fluorescence, 1 hour; read-out: IC50 on inhibition of microtubules polymerization
Protocol: Tubulin polymerization assay kit was used in the example, and the accompanying experimental protocol was followed. The specific method was described below.
Prior to the assay, the compounds were diluted with DMSO into a series of different concentrations and then diluted with sterile ultra-pure water into 10× solution of compounds. A 96-well plate was pre-warmed to 37° C. for 30 min in a multi-functional microplate reader. Reaction solution (2 mg/ml tubulin, 80 mM PIPES pH6.9, 2.0 mM MgCl2, 0.5 mM EGTA, 1.0 mM GTP, 15% glycerin) is prepared by materials needed in microtubule polymerization (tubulin buffer 85 uL, Glycerin buffer 150 μL, general buffer 205 μL, GTP ([…]) 4.4 μL). 5 μL solution of compound were added into the 96-well plate and incubated in a microplate reader for 1 min. DMSO was employed as a control. The plate was taken out and then reaction solution was immediately added ([…]). The plate was then immediately placed back into the reader and vibrated for 5 seconds before recording. The microplate reader was set at 37° C., and monitored in a kinetic model with emission wavelength at 450 nm and excitation wavelength at 360 nm. The plate was mixed and measured every minute and determined for 1 hour. A curve of fluorescence intensity v.s. time was obtained and the inhibition rate was calculated by the following formula. GraphPad Prism software was used to determine the IC50. Inhibition rate=[1−(average value of plateau of test curve−value of time 0)/(average value of plateau of DMSO curve−value of time 0)]*100.

A549 cells = test: Microtubule re-assembly and mitosis on cellular level (confocal immunofluorescence); format: cell-based, human; conditions: 31 nM
Protocol: The method was primarily described here below.
A549 cells were seeded in a confocal culture dish at 8×10^4 cells/dish, grown for 24 h and divided into two groups. DMSO (0.5%) was added to one group followed by culture for 24 h. Compound 3 (31 nM) was added to the other group followed by culture for 24 h. Then cells of two dishes were fixed directly (37° C.). The remaining cells were placed in ice for 1 h, then at 37° C. for 0, 5, 10, and 15 min Cells were then fixed with paraformaldehyde (4%) for 15 min. Then cells were subject to permeabilization buffer for 15 min Primary β-tubulin mouse antibody was added and incubated at room temperature for 1 h.
3 on microtubules, microtubule re-assembly and mitosis: a, c-f, was the solvent control group (0.5% DMSO added), b, g-j was test group (31 nM compound no. 3 added), Scale bars: […].

[12] = paclitaxel-resistant A2780/TAX, SRB
[13] = vincristine-resistant HCT-8/VCT, SRB
[14] = cis-platinum resistant A549/CDDP, SRB
[15] = doxorubicin resistant MCF-7/DOX, SRB

SMILES | IC50 ([1]; A2780, SRB, 48 h) [nM] | IC50 ([2]; HCT-8, SRB, 48 h) [nM] | IC50 ([3]; A549, SRB, 48 h) [nM] | IC50 ([4]; MCF7, MCF-7, SRB, 48 h) [nM] | IC50 ([5]; CNE-2, CNE2, SRB, 48 h) [nM] | IC50 ([6]; SW480, SRB, 48 h) [nM] | IC50 ([7]; HepG2, SRB, 48 h) [nM] | IC50 [8, 12] [nM] | IC50 [9, 13] [nM] | IC50 [10, 14] [nM] | IC50 [11, 15] [nM] | IC50 (tubulin) [µM] | other results
COc1ccc(/C=C/C(=O)c2ccccc2-c2ccc(F)cc2)cc1B(O)O [compound 1, (E)-(5-(3-(4′-Fluoro[1,1′-biphenyl]-2-yl)-3-oxoprop-1-en-1-yl)-2-methoxyphenyl)boronic acid] | 63 | 63 | 70 | 40 | 83 | 41 | 30 | 227 | 84 | 74 | 24 | 3.41 | –
COc1ccc(/C=C/C(=O)c2ccccc2-c2cc(OC)c(OC)c(OC)c2)cc1O [compound 4, (E)-3-(3-Hydroxy-4-methoxyphenyl)-1-(3′,4′,5′-trimethoxy[1,1′-biphenyl]-2-yl)prop-2-en-1-one] | – | – | – | – | – | – | – | – | – | – | – | 2.78 | IC50 ([1]; A2780, 48 h): 69 nM; IC50 ([2]; HCT-8, 48 h): 56 nM; IC50 ([3]; A549, 48 h): 69 nM; IC50 ([4]; MCF7, 48 h): 82 nM; IC50 ([5]; CNE-2, 48 h): 37 nM; IC50 ([6]; SW480, 48 h): 61 nM; IC50 ([7]; HepG2, 48 h): 46 nM; IC50 ([8]; A2780/TAX): 364 nM; IC50 [9]: 238 nM; IC50 ([10]; A549/CDDP): 93 nM; IC50 [11]: 66 nM
COc1ccc(/C=C/C(=O)c2ccccc2-c2ccc(OC)c(OC)c2OC)cc1O [compound 5, (E)-3-(3-Hydroxy-4-methoxyphenyl)-1-(2′,3′,4′-trimethoxy[1,1′-biphenyl]-2-yl)prop-2-en-1-one] | 74 | 59 | 55 | 96 | 45 | 74 | 52 | 289 | 266 | 122 | 59 | 6.5 | –
CN(C)c1ccc(/C=C/C(=O)c2ccccc2-c2ccc(F)cc2)cc1 [compound 2, (E)-3-(4-(Dimethylamino)phenyl)-1-(4′-fluoro[1,1′-biphenyl]-2-yl)prop-2-en-1-one] | 94 | 133 | 64 | 66 | 36 | 47 | 58 | 49 | 96 | 105 | 45 | 3.56 | –
COc1ccc(/C=C/C(=O)c2ccccc2-c2cccc(F)c2)cc1O [compound 3, (E)-1-(3′-Fluoro[1,1′-biphenyl]-2-yl)-3-(3-hydroxy-4-methoxyphenyl)prop-2-en-1-one] | 13 | 16 | 11 | 65 | 17 | 12 | 14 | 190 | 57 | 121 | 2 | 0.487 | Abnormal events in mitotic phase (A549 cells): multipolarization of spindle and multinucleation; Effect on filiform structure of microtubule (A549 cells; 24 h): microtubule depolymerized to form discreet tublin; Automatic re-assembly (polymerization) of tubulin into microtubule after ice incubation (A549 cells; ice 1 h then 37° C. 0-15 min): obviously inhibited
